Where two headings read alike, the source gives them in different places.

By melting point is commonly meant the temperature, or range, at which the solid turns liquid.

The subject of one data set is Aedes aegypti. Put plainly: Aedes aegypti (Yellow fever mosquito) larvae test. It is filed as in vivo. Particulars: 48 h.
Data set [1] deals with Puccinia recondita f.sp. tritici. Kind of data set: Puccinia recondita f.sp. tritici (wheat brown rust) leaf disk assay. It is filed as in vivo. Particulars: foliar, 216 h, preventive, nine days after inoculation, read-out: control of fungal infection, Puccinia recondita f.sp. tritici.
The next data set concerns Pyricularia oryzae. Kind of data set: whole plant or invertebrate. It is filed as in vivo. The note with it: foliar, 96 h.
The subject of the next data set is Plasmopara viticola. Put plainly: Plasmopara viticola (downy mildew of grapevine) leaf disk assay. It is filed as in vivo. The note with it: foliar, 168 h, preventive, seven days after inoculation, read-out: control of fungal infection, Plasmopara viticola.
The test system of the next data set is Septoria tritici. Put plainly: Septoria tritici (leaf blotch) growth inhibition in nutrient broth. Particulars: Zymoseptoria tritici, 72 hrs, read-out: control of fungal infection, Septoria tritici. It is filed as cell-based.
For a further data set, the system named is Plutella xylostella. Kind of data set: Plutella xylostella (Diamond back moth) artificial diet test. The note with it: 120 h, read-out: control of Plutella xylostella.
Data set [2] concerns Erysiphe graminis f.sp. tritici. Put plainly: Erysiphe graminis f.sp. tritici (wheat powdery mildew) leaf disk assay. The note with it: Blumeria graminis, foliar, 96 h, preventive, four days after inoculation, read-out: control of fungal infection, Erysiphe graminis fsp. tritici. It is filed as in vivo.
A further data set concerns Phytophthora infestans. Put plainly: whole plant or invertebrate. It is filed as in vivo. The note with it: foliar, 96 h, read-out: control of fungal infection, Phytophthora infestans.
The next data set relates to Myzus persicae. Kind of data set: Myzus persicae (Green peach aphid) sunflower leaf disc test. The note with it: foliar, 144 h, read-out: control of Myzus persicae.
Another data set concerns Tetranychus urticae. Particulars: foliar, 192 h, read-out: control of Tetranychus urticae.
Another data set concerns Pythium ultimum. Kind of data set: Pythium ultimum (Damping off) growth inhibition in potato dextrose broth. It is filed as cell-based. The note with it: Globisporangium ultimum, 48 hours, read-out: control of fungal infection, Pythium ultimum.
Another data set deals with Heliothis virescens. Kind of data set: Heliothis virescens (Tobacco budworm) egg test on artificial diet. The note with it: 96 h, read-out: control of Heliothis virescens.
[3] abbreviates: read-out: control of fungal infection, Pyricularia oryzae (at least 60% list).
[4] abbreviates: read-out: control of fungal infection, Pyricularia oryzae (at least 80% list).

For the compound `CCCCCC(=O)C=C1CC2CCC(C1)N2c1ncnc2sccc12` [Example 3.35], the pest or weed control at 2 ppm with Aedes aegypti was at least 80%. Further, the pest or weed control at 200 ppm in [1] was at least 80%; in the data set on Pyricularia oryzae (setting [3]), at least 60%; with Pyricularia oryzae (setting [4]), at least 80%; with Plasmopara viticola it was at least 80%; in the data set with Plutella xylostella it was at least 80%. Moreover, the inhibition of growth at 200 ppm in the data set with Septoria tritici was at least 60%.
In the data set with Aedes aegypti, `Cc1ccc(CON=C2CC3CCC(C2)N3c2ncnc3sccc23)c(C)c1` [Example 5.190] displayed a pest or weed control at 2 ppm of at least 80%. Also, the pest or weed control at 200 ppm (in [2]; in data set [1]; in the data set with Phytophthora infestans; in the data set with Plasmopara viticola; in the data set on Myzus persicae; with Plutella xylostella) was at least 80% in each case.
Take `CCc1ncnc(N2[C@@H]3CC[C@H]2CC(O)(COc2ccc(C)cc2)C3)c1Cl` (stereo partly drawn) [Example 1.159]: the pest or weed control at 200 ppm (in [1]; in the data set on Plasmopara viticola) was at least 80% each time. For the same compound, the inhibition of growth at 200 ppm in the data set on Septoria tritici was at least 60%.
As to `CCc1ncnc(N2C3CCC2CC(O)(CC#Cc2ccccc2)C3)c1Cl` (stereo not drawn) [Example 7.35], the pest or weed control at 200 ppm in data set [1] is at least 80%; with Pyricularia oryzae (setting [3]), at least 60%; in the data set on Plasmopara viticola, at least 80%. The inhibition of growth at 200 ppm in the data set on Septoria tritici was at least 60%.
In the data set with Aedes aegypti, `CCc1ncnc(N2C3CCC2CC(=NOCc2ccc(C)cc2)C3)c1Cl` [Example 5.7] yielded a pest or weed control at 2 ppm of at least 80%. Besides, the pest or weed control at 200 ppm (in data set [2]; in data set [1]; in the data set with Phytophthora infestans; in the data set on Myzus persicae; with Plutella xylostella) was at least 80% throughout.
Consider `CCc1ncnc(N2[C@@H]3CC[C@H]2CC(Oc2ccc(CCC(C)=O)cc2)C3)c1Cl` (stereo partly drawn) [Example 1.213], for which the pest or weed control at 200 ppm (in data set [2]; in data set [1]; with Myzus persicae; with Tetranychus urticae) was at least 80% in each case.
In the data set with Aedes aegypti, `CCc1ncnc(N2C3CCC2CC(=NOCc2c(F)ccc(F)c2F)C3)c1Cl` [Example 5.82] came in with a pest or weed control at 2 ppm of at least 80%. For the same compound, the pest or weed control at 200 ppm in data set [2] is at least 80%; in data set [1] it was at least 80%; with Pyricularia oryzae (setting [3]), at least 60%; with Phytophthora infestans, at least 80%; in the data set on Myzus persicae it was at least 80%; in the data set with Plutella xylostella, at least 80%.
The compound `CCc1ncnc(N2C3CCC2CC(=NOCc2ccc(F)cc2Cl)C3)c1Cl` [Example 5.76] returned a pest or weed control at 2 ppm with Aedes aegypti of at least 80%. The pest or weed control at 200 ppm in data set [1] is at least 80%; in the data set on Pyricularia oryzae (setting [3]), at least 60%; with Myzus persicae, at least 80%; in the data set on Plutella xylostella, at least 80%.
In the data set with Aedes aegypti, `Fc1ccc(F)c(CON=C2CC3CCC(C2)N3c2ncnc3sccc23)c1` [Example 5.218] had a pest or weed control at 2 ppm of at least 80%. Besides, the pest or weed control at 200 ppm in data set [2] was at least 80%; in data set [1] it was at least 80%; in the data set with Pyricularia oryzae (setting [3]), at least 60%; in the data set on Pyricularia oryzae (setting [4]), at least 80%; with Myzus persicae, at least 80%; in the data set on Plutella xylostella, at least 80%. For the same compound, the pest or weed control at 200 ppm in the data set with Tetranychus urticae was at least 80%. For the same compound, the inhibition of growth at 200 ppm in the data set on Pythium ultimum is at least 60%.
`c1ccc(CON=C2CC3CCC(C2)N3c2ncnc3sccc23)cc1` [Example 5.138] gave a pest or weed control at 2 ppm with Aedes aegypti of at least 80%. Also, the pest or weed control at 200 ppm in [2] was at least 80%; in data set [1], at least 80%; in the data set on Pyricularia oryzae (setting [3]), at least 60%; with Phytophthora infestans, at least 80%; in the data set with Plasmopara viticola, at least 80%; with Plutella xylostella, at least 80%. The pest or weed control at 200 ppm in the data set on Heliothis virescens and in the data set on Tetranychus urticae was at least 80% in each case. Further, the inhibition of growth at 200 ppm in the data set with Pythium ultimum is at least 60%.
With `Clc1ccc(CON=C2CC3CCC(C2)N3c2ncnc3sccc23)c(Cl)c1` [Example 5.152], the pest or weed control at 2 ppm in the data set with Aedes aegypti was at least 80%. The pest or weed control at 200 ppm in data set [2] was at least 80%; in data set [1] it was at least 80%; in the data set on Pyricularia oryzae (setting [3]) it was at least 60%; with Myzus persicae, at least 80%; in the data set on Plutella xylostella, at least 80%; in the data set on Heliothis virescens, at least 80%.
In the case of `Fc1ccc(CON=C2CC3CCC(C2)N3c2ncnc3sccc23)c(F)c1F` [Example 5.222], in the data set with Aedes aegypti, the pest or weed control at 2 ppm was at least 80%. The pest or weed control at 200 ppm in data set [2] was at least 80%; in [1], at least 80%; with Pyricularia oryzae (setting [3]), at least 60%; in the data set with Plasmopara viticola, at least 80%; in the data set on Myzus persicae, at least 80%; with Plutella xylostella, at least 80%. Also, in the data set with Pythium ultimum, the inhibition of growth at 200 ppm is at least 60%.
For `CC(C)(C)c1ccc(OC2C[C@H]3CC[C@@H](C2)N3c2ncnc3sccc23)cc1` (stereo partly drawn) [Example 1.25], the pest or weed control at 200 ppm in the data set on Phytophthora infestans, in the data set with Plasmopara viticola, in the data set with Myzus persicae and with Tetranychus urticae was at least 80% throughout.
Compound `Fc1ccc(CON=C2CC3CCC(C2)N3c2ncnc3sccc23)cc1` [Example 5.166] returned a pest or weed control at 2 ppm in the data set on Aedes aegypti of at least 80%. The pest or weed control at 200 ppm in data set [2] was at least 80%; in [1] it was at least 80%; with Pyricularia oryzae (setting [3]), at least 60%; in the data set on Pyricularia oryzae (setting [4]), at least 80%; with Phytophthora infestans, at least 80%; in the data set with Plasmopara viticola, at least 80%. The pest or weed control at 200 ppm in the data set on Myzus persicae and in the data set on Plutella xylostella was at least 80% throughout.
For the compound `Cc1csc2c(N3[C@@H]4CC[C@H]3CC(Oc3cccc(C(F)(F)F)n3)C4)ncnc12` (stereo partly drawn) [Example 2.82], the melting point amounted to 123 °C. In addition, the pest or weed control at 200 ppm in [2] was at least 80%. Also, in the data set on Pyricularia oryzae (setting [3]), the pest or weed control at 200 ppm is at least 60%. Also, the inhibition of growth at 200 ppm with Septoria tritici was at least 60%.
In the data set on Aedes aegypti, `CCc1ncnc(N2C3CCC2CC(Cc2ccccc2)C3)c1Cl` (stereo not drawn) [Example 7.23] showed a pest or weed control at 2 ppm of at least 80%. The pest or weed control at 200 ppm (in [1]; in the data set with Plutella xylostella) was at least 80% in each case. The inhibition of growth at 200 ppm with Septoria tritici was at least 60%.
With `CCc1ncnc(N2C3CCC2CC(=NOCc2ccc(C(F)(F)F)cc2)C3)c1Cl` [Example 5.43], the pest or weed control at 200 ppm (in data set [2]; in [1]; in the data set on Pyricularia oryzae (setting [4]); with Myzus persicae; with Plutella xylostella; in the data set with Tetranychus urticae) was at least 80% each time.
Regarding `CCc1ncnc(N2C3CCC2CC(=NOCc2ccccc2F)C3)c1Cl` [Example 5.54], the pest or weed control at 2 ppm in the data set with Aedes aegypti is at least 80%. Moreover, the pest or weed control at 200 ppm (in data set [2]; in data set [1]; with Myzus persicae; with Plutella xylostella; with Tetranychus urticae) was at least 80% in each case.
With `CCc1ncnc(N2C3CCC2CC(=NOCc2ccc(Cl)cc2)C3)c1Cl` [Example 5.21], in the data set on Aedes aegypti, the pest or weed control at 2 ppm is at least 80%. Further, the pest or weed control at 200 ppm (in data set [2]; in [1]; in the data set with Pyricularia oryzae (setting [4]); with Phytophthora infestans; in the data set on Myzus persicae; in the data set on Plutella xylostella) was at least 80% each time. Also, the pest or weed control at 200 ppm in the data set on Heliothis virescens was at least 80%.
As for `Cc1nc(CON=C2CC3CCC(C2)N3c2ncnc3sccc23)no1` [Example 5.245], the pest or weed control at 2 ppm in the data set on Aedes aegypti is at least 80%. For the same compound, the pest or weed control at 200 ppm (in data set [2]; in [1]; in the data set with Pyricularia oryzae (setting [4]); with Myzus persicae; in the data set on Plutella xylostella; with Heliothis virescens) was at least 80% each time.
`CCc1ncnc(N2C3CCC2CC(=NOCc2cc4c(cc2Cl)OCO4)C3)c1Cl` [Example 5.114] came in with a pest or weed control at 2 ppm in the data set on Aedes aegypti of at least 80%. Besides, the pest or weed control at 200 ppm (in data set [2]; in data set [1]; with Plasmopara viticola; in the data set with Myzus persicae) was at least 80% in each case.
As for `Cc1ccc(OCC=C2CC3CCC(C2)N3c2ncnc3sccc23)cn1` [Example 3.29], the pest or weed control at 2 ppm in the data set with Aedes aegypti is at least 80%. The pest or weed control at 200 ppm (in data set [1]; in the data set with Pyricularia oryzae (setting [4]); with Phytophthora infestans; with Plasmopara viticola; with Myzus persicae; in the data set on Plutella xylostella) was at least 80% in each case. For the same compound, in the data set with Heliothis virescens, the pest or weed control at 200 ppm is at least 80%.

The record behind these values is patent US20100331348A1, “TROPANE DERIVATIVES USEFUL AS PESTICIDES” (SYNGENTA CROP PROTECTION, INC., priority 2007, published 2010).
